Laboratory results as given in patent US20020161052A1, “Terminally-branched polymeric linkers and polymeric conjugates containing the same” (priority 2001, published 2002).

How the values were obtained:
[1] = system: P388/O (murine lymphoid neoplasm) cell line; test: In vitro bioassay, cell growth by Alamar Blue; type: cell-based; settings: Mus musculus, 72 h; P388/O cells, three days, 37° C., in duplicate; SD ± 10%
Procedure: A series of in vitro assays were conducted to determine the IC50 for unmodified Ara-C and compound 10 using the P388/O (murine lymphoid neoplasm, Southern Research Institute) cell line. The P388/0 cells were grown in RPMI 1640 medium (Whittaker Bioproducts, Walkersville, Md.) +10% FBS (Hyclone Inc., Logan UT). Bioassays were performed in their respective media containing antibiotics and fungizone.
Ara-C was dissolved in DMSO and diluted to the appropriate concentration in culture media. The PEG-Ara-C compounds were dissolved in water and diluted to the appropriate concentrations in culture media.
The assays were performed in duplicate in 96-well microtiter cell culture plates. Two fold serial dilution of the compounds were done in the microtiter plates. Cells were detached by incubating with 0.1% Trypsin/Versene at 37°. Trypsin was inactivated by adding the appropriate media for each cell line containing 10% FBS. To each well of the microtiter plates, 10,000 cells were added. After three days, cell growth was measured by addition of a metabolic indicator dye, Alamar Blue, according to the manufacturer's protocol. The IC50 value for the test compounds and reference compound are provided above in the Table.

[2] = system: LX-1; test: LX-1 subcutaneous tumor in athymic nude mice; type: in vivo; settings: 100 mg/kg, i.v. q3d×4, athymic nude mice; mean baseline tumor volume 1000 mm^3
Procedure: Athymic nude mice were implanted subcutaneous with a 4-5 mm^3 tissue fragment of LX-1 collected from donor mice. The tumor trocar site was observed twice weekly and measured once palpable. The tumor volume for each mouse was determined by measuring two dimensions with calipers and calculated using the formula: tumor volume=(length×width^2)/2. […] The mice were sorted to evenly distribute tumor size, grouped into 4 to 6 mice/group, and ear punched for permanent identification. Drugs were administered intravenously q3d×4 (Day 1, 4, 7 and 10) via the tail vein at an approximate rate of 0.5 mL per minute.

- IC50 [1]: 10 nM
SMILES: Nc1ccn([C@@H]2O[C@H](CO)[C@@H](O)[C@@H]2O)c(=O)n1 [Ara-C, cytosine arabinoside]
- LX-1 % T/C [2]: 74.0%
